Tests used:
[1] = tested on: AB1; test: MIC of antibiotics ± test compound (MIC ratio), micro-broth dilution; type: cell-based, Acinetobacter baumannii; settings: compound at MIC/4
Protocol: (§1) Susceptibilities to antibiotics and compounds were determined in microplates by broth dilution method, as previously described. Minimal Inhibitory Concentrations (MICs) were determined with an inoculum of 10^6 CFU in 200 μL of MH broth containing two-fold serial dilutions of each drug. […] All MIC determinations were repeated at least three times in independent experiments.
(§2) The MICs of chloramphenicol±test compounds (MIC/4) were determined by the micro-broth dilution method (9). All MIC determinations were repeated at least three times in independent experiments. The MIC ratio corresponds to the ratio of the MIC of an antibiotic alone to the MIC of the same antibiotic in the presence of the tested compound (at MIC/4).
(§3) For reminder, the MIC ratio corresponds to the ratio of the MIC of the assessed antibiotic alone to the MIC of the same antibiotic in the presence of the tested compound (at MIC/4).

[2] = tested on: ATCC 19606; test: as above; type: cell-based, Acinetobacter baumannii; settings: compound at MIC/4
Protocol: as §1, §2, §3

[3] = tested on: PA124; test: as above; type: cell-based, Pseudomonas aeruginosa; settings: compound at MIC/4
Protocol: as §1, §2, §3

[4] = tested on: PAO1; test: as above; type: cell-based, Pseudomonas aeruginosa; settings: compound at MIC/4
Protocol: as §1, §2, §3

[5] = tested on: Salmonella Thyphimurium MDR BN10055; test: as above; type: cell-based, Salmonella enterica serovar Typhimurium; settings: compound at MIC/4; for MIC ratio (*) on BN10055 Chl: chloramphenicol; for MIC ratio Chloramphenicol S. enterica BN10055 / MIC ratio Doxycycline S. enterica BN10055 / MIC ratio Nalidixic acid S. enterica BN10055: Example 4; for MIC ratio (*) on BN10055 Dox: doxycycline; for MIC ratio (*) on BN10055 Nal: nalidixic acid
Protocol: (§4) The Enterobacter aerogenes Ea289 strain is a Kans derivative of the MDR clinical isolate Ea27, the acrB mutant, EaEP294, was constructed from Ea289. Multidrug-resistant Salmonella enterica serovar Typhimurium DT104 strains (BN10055) was isolated from cattle in France, the isogenic acrB derivative mutant, BN10055ΔacrB, was constructed from BN10055. Strains were maintained at −80° C. in 25% (v/v) glycerol for cryoprotection. Bacteria were routinely grown in Mueller-Hinton (MH) broth at 37° C.
as §1
(§5) […] All MIC determinations were repeated at least three times in independent experiments. The MIC ratio corresponds to the ratio of the MIC of an antibiotic alone to the MIC of the same antibiotic in the presence of the tested compound (at MIC/4).
as §3

[6] = tested on: BN10055ΔacrB; test: as above; type: cell-based, Salmonella enterica serovar Typhimurium; settings: compound at MIC/4; for MIC ratio Chloramphenicol S. enterica BN1005ΔacrB / MIC ratio Doxycycline S. enterica BN1005ΔacrB / MIC ratio Nalidixic acid S. enterica BN1005ΔacrB: Example 4
Protocol: as §4, §1, §5, §3

[7] = tested on: Ea289ΔacrB (Ea294); test: as above; type: cell-based, Enterobacter aerogenes; settings: compound at MIC/4; for MIC ratio Chloramphenicol E. aerogenes Ea294 / MIC ratio Doxycycline E. aerogenes Ea294 / MIC ratio Nalidixic acid E. aerogenes Ea294: Example 4
Protocol: as §4, §1, §5, §3

[8] = tested on: Ea27; test: as above; type: cell-based, Enterobacter aerogenes; settings: compound at MIC/4; Example 4
Protocol: as §1, §2, §3

[9] = tested on: ATCC 13048; test: as above; type: cell-based, Enterobacter aerogenes; settings: compound at MIC/4; Example 4
Protocol: as §1, §2, §3

[10] = tested on: CM64; test: as above; type: cell-based, Enterobacter aerogenes; settings: compound at MIC/4; Example 4
Protocol: as §1, §2, §3

[11] = tested on: Pseudomonas and Actinebacter strains; test: MIC ratio, several strains; type: cell-based
Excerpt: as §3

[12] = tested on: Enterobacter, Salmonella and Escherichia strains; test: MIC ratio, several strains; type: cell-based
Excerpt: as §3

[13] = tested on: CHO cells; test: Toxicity on CHO cultured cells; type: cell-based; settings: Cricetulus griseus; killing of 50% of the CHO cells after 24 hours of incubation
Protocol: The toxicity of each compound was determined on CHO cultured cells. Incubation of CHO cells was performed with serial dilution of compounds. The compounds are either solubilized in DMSO or in PBS. The IC50 corresponds to the concentration of compounds leading to a killing of 50% of the CHO cells after 24 hours of incubation.

## CC(C)=CCC/C(C)=C/CC/C(C)=C/CNCCCN(C)CCCN [Compound 14, {3-[(3-Amino-propyl)-methyl-amino]-propyl}-((2E,6E)-3,7,11-trimethyl-dodeca-2,6,10-trienyl)-amine]
[1]
  MIC ratio Cefepime Acinetobacter baumannii AB1: 1
  MIC ratio Chloramphénicol Acinetobacter baumannii AB1: 16
  MIC ratio Doxycycline Acinetobacter baumannii AB1: 2
  MIC ratio Tetracycline Acinetobacter baumannii AB1: 4
[2]
  MIC ratio Cefepime Acinetobacter baumannii ATCC19606: 4-8
  MIC ratio Chloramphénicol Acinetobacter baumannii ATCC19606: 8
  MIC ratio Doxycycline Acinetobacter baumannii ATCC19606: 1
  MIC ratio Tetracycline Acinetobacter baumannii ATCC19606: 4
[3]
  MIC ratio Cefepime Pseudomonas aeruginosa PA124: 1
  MIC ratio Chloramphénicol Pseudomonas aeruginosa PA124: 128
  MIC ratio Doxycycline Pseudomonas aeruginosa PA124: >32
  MIC ratio Tetracycline Pseudomonas aeruginosa PA124: 8
[4]
  MIC ratio Cefepime Pseudomonas aeruginosa PAO1: 1
  MIC ratio Doxycycline Pseudomonas aeruginosa PAO1: >16
[5]; Set 2
  MIC ratio (*) on BN10055 Chl: 16
  MIC ratio (*) on BN10055 Dox: 64
  MIC ratio (*) on BN10055 Nal: 128
[5]
  MIC ratio Chloramphenicol S. enterica BN10055: 16
  MIC ratio Doxycycline S. enterica BN10055: 64
  MIC ratio Nalidixic acid S. enterica BN10055: 128
[6]
  MIC ratio Chloramphenicol S. enterica BN1005ΔacrB: 2
  MIC ratio Doxycycline S. enterica BN1005ΔacrB: 2
  MIC ratio Nalidixic acid S. enterica BN1005ΔacrB: 4
[7]
  MIC ratio Chloramphenicol E. aerogenes Ea294: 2
  MIC ratio Doxycycline E. aerogenes Ea294: 4
  MIC ratio Nalidixic acid E. aerogenes Ea294: 4
[8]
  MIC ratio Chloramphenicol E. aerogenes Ea27: >4
  MIC ratio Doxycycline E. aerogenes Ea27: 32
  MIC ratio Oxacillin E. aerogenes Ea27: 1
[9]
  MIC ratio Chloramphenicol E. aerogenes ATCC13048: >32
  MIC ratio Doxycycline E. aerogenes ATCC13048: 64
  MIC ratio Oxacillin E. aerogenes ATCC13048: >8
[10]
  MIC ratio Chloramphenicol E. aerogenes CM64: 16
  MIC ratio Oxacillin E. aerogenes CM64: >8

## CC(C)=CCCC(C)=CCNCCCN(CCCN)CCCN (racemic) [Compound 11, {3-[Bis-(3-amino-propyl)-amino]-propyl}-(3,7-dimethyl-octa-2,6-dienyl)-amine]
[1]
  MIC ratio Cefepime Acinetobacter baumannii AB1: 1
  MIC ratio Chloramphénicol Acinetobacter baumannii AB1: 16
  MIC ratio Doxycycline Acinetobacter baumannii AB1: 2
  MIC ratio Tetracycline Acinetobacter baumannii AB1: 2
[2]
  MIC ratio Cefepime Acinetobacter baumannii ATCC19606: 4-8
  MIC ratio Chloramphénicol Acinetobacter baumannii ATCC19606: 8
  MIC ratio Doxycycline Acinetobacter baumannii ATCC19606: 1
  MIC ratio Tetracycline Acinetobacter baumannii ATCC19606: 8
[3]
  MIC ratio Cefepime Pseudomonas aeruginosa PA124: 1
  MIC ratio Chloramphénicol Pseudomonas aeruginosa PA124: 128
  MIC ratio Doxycycline Pseudomonas aeruginosa PA124: >32
  MIC ratio Tetracycline Pseudomonas aeruginosa PA124: 8
[4]
  MIC ratio Cefepime Pseudomonas aeruginosa PAO1: 1
  MIC ratio Doxycycline Pseudomonas aeruginosa PAO1: >16
[5]; Set 1
  MIC ratio (*) on BN10055 Chl: 16
  MIC ratio (*) on BN10055 Nal: 128
[5]; Set 2
  MIC ratio (*) on BN10055 Chl: 16
  MIC ratio (*) on BN10055 Dox: 16
  MIC ratio (*) on BN10055 Nal: 128
[5]
  MIC ratio Chloramphenicol S. enterica BN10055: 16
  MIC ratio Doxycycline S. enterica BN10055: 16
  MIC ratio Nalidixic acid S. enterica BN10055: 128
[5]; erythromycin, Set 1
  MIC ratio(*) on BN10055 Ery: 8
[6]; chloramphenicol, Set 1
  MIC ratio(*) on BN10055ΔacrB Chl: 2
[6]
  MIC ratio Chloramphenicol S. enterica BN1005ΔacrB: 2
  MIC ratio Doxycycline S. enterica BN1005ΔacrB: 2
  MIC ratio Nalidixic acid S. enterica BN1005ΔacrB: 2
[6]; erythromycin, Set 1
  MIC ratio(*) on BN10055ΔacrB Ery: 8
[6]; nalidixic acid, Set 1
  MIC ratio(*) on BN10055ΔacrB Nal: 2
[7]; chloramphenicol, Set 1
  MIC ratio(*) on Ea289ΔacrB Chl: 16
[7]
  MIC ratio Chloramphenicol E. aerogenes Ea294: 16
  MIC ratio Doxycycline E. aerogenes Ea294: 4
  MIC ratio Nalidixic acid E. aerogenes Ea294: 8
[7]; erythromycin, Set 1
  MIC ratio(*) on Ea289ΔacrB Ery: 16
[7]; nalidixic acid, Set 1
  MIC ratio(*) on Ea289ΔacrB Nal: 8
[8]
  MIC ratio Chloramphenicol E. aerogenes Ea27: >4
  MIC ratio Doxycycline E. aerogenes Ea27: 32
  MIC ratio Oxacillin E. aerogenes Ea27: 1
[9]
  MIC ratio Chloramphenicol E. aerogenes ATCC13048: >32
  MIC ratio Doxycycline E. aerogenes ATCC13048: 64
  MIC ratio Oxacillin E. aerogenes ATCC13048: >8
[10]
  MIC ratio Chloramphenicol E. aerogenes CM64: 16
  MIC ratio Oxacillin E. aerogenes CM64: >8
[11]; Pseudomonas and Actinebacter strains
  sensitivity of strains to chloramphenicol: greatly increased the sensitivity
[11]; tetracycline
  sensitivity to tetracycline, Pseudomonas and Actinebacter strains: increased the sensitivity
[12]; Enterobacter Salmonella and Escherichia strains
  sensitivity for chloramphenicol, nalidixic acid, doxycycline and oxacillin: increased the sensitivity
[12]; tetracycline, data not shown
  sensitivity to tetracycline, Enterobacter, Salmonella and E. coli strains: such an increase was not observed
[13]
  IC50: 0.282 mM

Source: US10562842B2, “Use of polyaminoisoprenyl derivatives in antibiotic or antiseptic treatment” (UNIVERSITE D'AIX-MARSEILLE, priority 2011, dated 2020)
